Assay results as given in patent US4269940A, “Microbiological alkane oxidation process” (priority 1979, dated 1981).
Like-named read-outs stand apart in the source and are kept apart here.

Tests used:
[1] = test system: secondary alcohol dehydrogenase (SADH); experiment: Substrate specificity and Michaelis constants of purified SADH; type: biochemical, Pseudomonas sp. ATCC 21439
Method: Secondary alcohol dehydrogenase (SADH) from an obligate methanol utilizer, Pseudomonas sp. ATCC 21439 was purified as follows. […] 0.05 M sodium phosphate buffer, pH 7.0 with 0.5mM dithiothretol (buffer A) and were disrupted sonically (5×1 min.). The crude extract was separated by centrifugation. The crude extract was heat-treated at 50° C. in a water bath for 10 minutes. The resulting precipitate was removed by centrifugation. To the supernatant solution, 25 ml of protamine sulfate solution (2% solution in 0.1 M Tris base) was added dropwise with continuous stirring. After standing for 30 minutes, the extract was centrifuged. The supernatant solution was fractionated with solid ammonium sulfate. […] This DEAE-cellulose eluate was concentrated by ammonium sulfate fractionation. Material precipitating between 30 and 50% ammonium sulfate saturation was collected by centrifugation and dialyzed overnight against A. This fraction was further washed and filtered through an Amicon unit with XM 50 membrane. The concentrated fraction (6 ml) inside the Amicon unit was applied to an Affi-Gel Blue column (0.8 cm ×18 cm) which had been equilibrated with buffer A for affinity chromatography. The column was washed overnight with buffer A (0.18 ml./min.) and then was eluted with buffer A containing 5 mM NAD. Each 1 ml. fraction was collected.
The purified secondary alcohol dehydrogenase enzyme (SADH) may be used directly for converting C3 -C6 secondary alcohols to the corresponding methyl ketones by the procedures described above; however, a source of NAD^+ must be added to the reaction medium. One can determine the NAD-linked secondary alcohol dehydrogenase activity with a fluorescence spectrophotometer (Perkin Elmer, Model MPF 44A) by following the formation of reduced NAD (Ex 340 nm, Em 460 nm). The assay system (3 ml.) will typically contain: sodium phosphate buffer pH 7.0, 150 μmol; NAD 1.0 μmol; a given amount of enzyme preparation; and 20 μmol secondary alcohol. The reaction is started by the addition of secondary alcohol. One unit of SADH enzyme activity represents the reduction of one nmole NAD per minute.

[2] = test system: purified secondary alcohol dehydrogenase; experiment: Stoichiometry of isopropanol and sec-butanol oxidation by the purified secondary alcohol dehydrogenase (Table XXIV); type: biochemical, Pichia sp. NRRL Y-11,328; conditions: substrate 5.7 (isopropanol) or 6.0 (2-butanol) μmoles; for Product formed (acetone or 2-butanone): gas chromatography; for NAD^+ reduced: spectrophotometrically at 340 nm
Method: ^a The estimation of NAD^+ reduced was measured
spectrophotometrically at 340 nm.
^b The estimation of products was detected by gas chromatography as
described in the methods.

[3] = test system: cell suspensions of the strains of C1-utilizers tested; experiment: Production of methyl ketones from secondary alcohols by cell suspensions of C1-utilizers (strains tested); type: cell-based; conditions: cell suspensions of C1-utilizers
Excerpt: The substrate specificity for the oxidation of C3 -C6 secondary alcohols by the strains of C1 -utilizers was studied.

[4] = test system: cell-free extracts of strain ATCC 21439; conditions: 30° C.
Method: The reaction mixtures 3 ml (1.0 mg protein) were incubated at 30°
C. for 10 min. (exp. 1) and for 20 min. (exp. 2) in the presence of 1.0
^a Determined gas chromatographically.
^b Determined fluorescence spectrophotometrically. Endogenous
consumption of NAD was corrected.

[5] = test system: purified secondary alcohol dehydrogenase; experiment: Substrate and electron acceptor specificity of purified yeast secondary alcohol dehydrogenase; type: biochemical, Pichia sp. NRRL Y-11,328; conditions: for Oxidation by the purified yeast enzyme (in words): examined spectrophotometrically
Method: (§1) Large scale cultures of Pichia sp. NRRL Y-11,328 were grown with aeration at 30° C. in a 14-liter New Brunswick f fermentor in a mineral salt medium containing methanol (0.4%, v/v) as the sole carbon source. The cells (200 g., wet weight) were suspended in 50 mm sodium phosphate buffer, pH 7.0, containing 1 mM dithiothreitol (buffer A), and crude extracts were prepared as described previously. To the crude extracts, 18 ml. of protamine sulfate solution [2% solution in 0.1 M tris (hydroxymethyl) aminomethane (tris) base] was added dropwise with continuous stirring. After standing for 30 min., the extracts were centrifuged at 20,000 x g. for 60 min. The supernatant solution was fractioned with solid ammonium sulfate. Extracts were brought to 50% of saturation with respect to ammonium sulfate by addition of 313 g. of the salt per liter of extract. Precipitated proteins was removed by centrifugation, and 137 g. of ammonium sulfate was added per liter of the supernatant liquid to bring it to 70% of saturation. Material precipitating between 50 and 70% of saturation was collected by centrifugation and dissolved in buffer A. This preparation was dialyzed overnight against buffer A, and the dialyzed material was applied to a DEAE-cellulose column (5×40 cm) that had been equilibrated with buffer A. The sample was washed with 200 ml. of buffer A and eluted with 2 liters of buffer A that contained NaCl in a linear gradient running from a concentration of 0 to 0.5 M. Fractions of 15 ml. were collected. Fractions containing secondary alcohol dehydrogenase activity were pooled and were termed DEAE-cellulose eluate. The DEAE-cellulose eluate was concentrated by ammonium sulfate fractionation.
(§2) Secondary alcohol dehydrogenase activity was measured spectrophotometrically at 340 nm with a NAD^+ as an electron acceptor. The reaction mixture, in a total 3.0 ml., contained 50 mM phosphate buffer, pH 8.0, 5μmoles NAD^+, crude extracts, and substrate. The reactions were started by addition of 100 μof 0.1 M substrate and the rate of NAD^+ reduction was measured. Protein concentration was determined by the method of Lowry et al.
The substrate specificity of the purified secondary alcohol dehydrogenase was examined spectrophotometrically.

[6] = test system: cell-free soluble extracts (SADH system); experiment: Cofactor requirement of cell-free SADH system (2-butanol to 2-butanone); type: biochemical
Method: The clear supernatant contained the SADH activity. […] The reaction was started by the addition of substrate.
Catalytic activity was also assayed by fluorescence spectrophotometry.

[7] = test system: purified secondary alcohol dehydrogenase; experiment: Inhibition of purified yeast secondary alcohol dehydrogenase; type: biochemical, Pichia sp. NRRL Y-11,328; conditions: purified yeast enzyme
Method: as §1, §2
Various primary alcohols not oxidized by secondary alcohol dehydrogenase were tested as potential inhibitors of enzyme activity.

[8] = test system: P(40) particulate fraction of Methylosinus sp. (CRL-15, NRRL B-11,202); experiment: Oxidation of n-alkenes and n-alkanes by P(40) particulate fraction (Table X); type: biochemical; conditions: P(40) fraction, 30° C.
[9] = test system: Methylobacter vinelandii (CRL M5Y NRRL B-11,218); experiment: Microbiological oxidation of cyclic hydrocarbons by methane-grown washed cells (Example 7); type: cell-based; conditions: aerobic
Method: A 0.5 ml sample of each washed cell suspension (2 mg cells) was put into 10 ml vials at 4° C. which were sealed with a rubber cap. The gaseous phase of the vials was removed with vacuum and then was replaced with a gas mixture of the oxidative substrate (e.g., methane) and oxygen at a 1:1 v/v ratio. […] Samples of product (3 μl) were withdrawn periodically with a microsyringe and the products were analyzed by gas chromatography (ionization flame detector column).
Methylobacter vinelandii (CRL M5Y NRRL B-11,218) was aerobically grown in a methane-containing nutrient medium in the manner described in Example 1 and the methane-grown washed cells were contacted under aerobic conditions with cyclohexane, benzene and toluene.

[10] = test system: P(40) particulate fraction of Methylosinus sp. (CRL-15, NRRL B-11,202); experiment: Substrate competition: effect of methane on propylene epoxidizing activity of P(40) fraction (Table XIII); type: biochemical; conditions: gaseous substrate as named
Method: The oxidation of methane and propylene by particulate [(P)40 and (P)80] fractions and soluble [S(80)] fraction was measured at 30° C. by estimating the production of methanol and propylene oxide, respectively. The reaction mixtures contained in 1.0 ml: 150 mM potassium phosphate buffer, pH 7.0 containing 5 mM MgC2, 0.6 ml; 10 μmoles NADH, and cellular fraction.
Reaction mixtures were contained in 10 ml vials at 4° C. Vials were sealed with rubber caps. The gaseous phase in the vials was removed using vacuum and then was replaced with a gas mixture of methane or propylene and oxygen at a 1:1, v/v ratio. Oxidation of other gaseous n-alkanes and n-alkenes was examined as described above. For liquid substrates, 10 μ of substrate was used directly.
The hydroxylation of methane and the epoxidation of propylene by particulate fractions of methane-utilizing bacteria required oxygen and NADH. The question of whether the same or a similar enzyme was involved in the oxidation of both substrates was examined by substrate competition experiments. The experiment consisted of determining the effect of methane on the oxidation of propylene to propylene oxide by the P(40) particulate fraction of Methylosinus sp. (CRL-15, NRRL B-11,202).

[11] = test system: P(40) particulate fraction of Methylosinus sp. (CRL-15, NRRL B-11,202); experiment: Stoichiometry of propylene epoxidation and methane hydroxylation by P(40) fraction (Table XIV); type: biochemical; conditions: 5.0 μmoles substrate; for Product formed: gas chromatography; for O2 consumed: polarographic; for NADH oxidized: spectrophotometric
Method: The particulate P(40) fraction of Methylosinus sp. (CRL-15, NRRL B-11,202) was used to determine the stoichiometry of hydroxylation and epoxidation reactions. The stoichiometry of methane or propylene-dependant NADH oxidation, oxygen consumption and product formation was approximately 1:1:1 Table XIV. This is consistent with methane or propylene oxygenation being catalyzed by a mono-oxygenase.
^a Under identical condition of reaction, the estimation of NADH
oxidized was carried out spectrophotometrically, the estimation of oxygen
consumed was measured polarographically, and the estimation of product
formed was carried out by gas chromatography.

[12] = test system: cell-free particulate fractions derived from the methylotrophic microorganisms; experiment: Inhibition of conversion of C3-C6 n-alkanes to sec. alcohols by cell-free particulate fractions; type: biochemical; conditions: oxygen and NADH
Excerpt: The conditions for preparing the cell suspensions or the cell-free particulate fractions from methane-grown methylotroph microorganisms is the same as described above.

## CCC(C)O (stereo not shown) [2-butanol]
[1]
  Oxidation by purified SADH (in words): highest
[2]
  Product formed (acetone or 2-butanone): 5.7 µmol
  NAD^+ reduced: 5.9 µmol
[3]
  Rate of oxidation of secondary alcohols to methyl ketones: higher rates
[4]; experiment 1, 10 min.
  2-Butanol consumed: 260 nmol
[4]; experiment 2, 20 min.
  2-Butanol consumed: 530 nmol
  NAD consumed: 540 nmol
[5]
  Oxidation by the purified yeast enzyme (in words): catalyzed the oxidation

## Cc1cc2nc3c(=O)[nH]c(=O)nc-3n(C[C@H](O)[C@H](O)[C@H](O)COP(=O)(O)OP(=O)(O)OC[C@H]3O[C@@H](n4cnc5c(N)ncnc54)[C@H](O)[C@@H]3O)c2cc1C [FAD, flavin adenine dinucleotide, reference compound]
[6]
  Effectiveness as cofactor of the cell-free SADH system: not effective
[5]
  Function as electron acceptor/carrier for the purified yeast enzyme: could not act as electron carrier

## N[C@@H](CCC(=O)N[C@@H](CS)C(=O)NCC(=O)O)C(=O)O [glutathione]
[6]
  Effectiveness as cofactor of the cell-free SADH system: not effective
[7]
  Inhibition of secondary alcohol dehydrogenase activity (in words): strongly inhibited

## CC [Ethane]
[8]
  Rate of product formation (substrate to epoxide or alcohol): 3.2 μ moles/hr/mg of protein

## c1ccccc1 [benzene]
[9]
  Oxidative conversion: no oxidative conversion was detected

## C=CC=C [Butadiene]
[8]
  Rate of product formation (substrate to epoxide or alcohol): 0.63 μ moles/hr/mg of protein

## C1CCCCC1 [Cyclohexane]
[9]
  Conversion rate to cyclohexanol: 1.5 μmoles/2 hr./mg. protein

## CC(C)O [2-propanol]
[1]
  Oxidation by purified SADH (in words): highest
[2]
  Product formed (acetone or 2-butanone): 5.5 µmol
  NAD^+ reduced: 5.4 µmol
[3]
  Rate of oxidation of secondary alcohols to methyl ketones: higher rates
[5]
  Oxidation by the purified yeast enzyme (in words): catalyzed the oxidation

## C [Methane]
[10]
  Propylene oxide produced: 0 μmoles/hr/mg. protein
[8]
  Rate of product formation (substrate to epoxide or alcohol): 4.8 μ moles/hr/mg of protein
[11]
  Product formed: 4.2 µmol
  O2 consumed: 4.6 µmol
  NADH oxidized: 4.8 µmol

## C=CCC [1-Butene]
[8]
  Rate of product formation (substrate to epoxide or alcohol): 2.18 μ moles/hr/mg of protein

## C=CC [Propylene]
[10]
  Propylene oxide produced: 4.3 μmoles/hr/mg. protein
[12]
  Inhibition of conversion of C3-C6 n-alkanes to sec. alcohols (in words): inhibit
[12]; listed as propylene
  Inhibition of conversion of C3-C6 n-alkanes to sec. alcohols (in words): inhibited
[8]
  Rate of product formation (substrate to epoxide or alcohol): 4.1 μ moles/hr/mg of protein
[11]
  Product formed: 4.5 µmol
  O2 consumed: 4.8 µmol
  NADH oxidized: 5.0 µmol

## Cc1ccccc1 [toluene]
[9]
  Oxidative conversion: no oxidative conversion was detected

## NC(=O)c1ccc[n+]([C@@H]2O[C@H](COP(=O)([O-])OP(=O)(O)OC[C@H]3O[C@@H](n4cnc5c(N)ncnc54)[C@H](OP(=O)(O)O)[C@@H]3O)[C@@H](O)[C@H]2O)c1 [NADP, reference compound]
[6]
  Effectiveness as cofactor of the cell-free SADH system: not effective
[5]
  Function as electron acceptor/carrier for the purified yeast enzyme: could not act as electron carrier

## C=C [Ethylene]
[8]
  Rate of product formation (substrate to epoxide or alcohol): 1.27 μ moles/hr/mg of protein

## C=CCCC [1-Pentene]
[8]
  Rate of product formation (substrate to epoxide or alcohol): 0 μ moles/hr/mg of protein

## NC(=O)c1ccc[n+]([C@@H]2O[C@H](COP(=O)([O-])OP(=O)(O)OC[C@H]3O[C@@H](n4cnc5c(N)ncnc54)[C@H](O)[C@@H]3O)[C@@H](O)[C@H]2O)c1 [NAD, Nicotinamide adenine dinucleotide, reference compound]
[6]
  Effectiveness as cofactor of the cell-free SADH system: required
[5]
  Function as electron acceptor/carrier for the purified yeast enzyme: required

## O=C1C(Cl)=CC(=Nc2ccc(O)cc2)C=C1Cl [dichlorophenol indophenol, reference compound]
[6]
  Effectiveness as cofactor of the cell-free SADH system: not effective
[5]
  Function as electron acceptor/carrier for the purified yeast enzyme: could not act as electron carrier

## C[n+]1c2ccccc2nc2ccccc21 [phenazine methosulfate, reference compound]
[6]
  Effectiveness as cofactor of the cell-free SADH system: not effective
[5]
  Function as electron acceptor/carrier for the purified yeast enzyme: could not act as electron carrier

## NC(=O)C1=CN([C@@H]2O[C@H](COP(=O)(O)OP(=O)(O)OC[C@H]3O[C@@H](n4cnc5c(N)ncnc54)[C@H](OP(=O)(O)O)[C@@H]3O)[C@@H](O)[C@H]2O)C=CC1 [NAD(P)H]
[6]
  Effectiveness as cofactor of the cell-free SADH system: not effective
